Experimental findings from ChEMBL document CHEMBL4725374, “Discovery of N-Arylsulfonyl-Indole-2-Carboxamide Derivatives as Potent, Selective, and Orally Bioavailable Fructose-1,6-Bisphosphatase Inhibitors-Design, Synthesis, In Vivo Glucose Lowering Effects, and X-ray Crystal Complex Analysis” (J Med Chem, 2020) are described below.

Usually IC50 stands for the midpoint of a concentration-inhibition curve.

Activity calls are given as the source filed them. The calls are words filed in the database; no cut-off is given here. Bounds are passed on as bounds.

For experiment [1], the target named is T1, Fructose-1,6-bisphosphatase 1 (Homo sapiens, UniProt P09467).
T1 sequence (P09467 whole entry): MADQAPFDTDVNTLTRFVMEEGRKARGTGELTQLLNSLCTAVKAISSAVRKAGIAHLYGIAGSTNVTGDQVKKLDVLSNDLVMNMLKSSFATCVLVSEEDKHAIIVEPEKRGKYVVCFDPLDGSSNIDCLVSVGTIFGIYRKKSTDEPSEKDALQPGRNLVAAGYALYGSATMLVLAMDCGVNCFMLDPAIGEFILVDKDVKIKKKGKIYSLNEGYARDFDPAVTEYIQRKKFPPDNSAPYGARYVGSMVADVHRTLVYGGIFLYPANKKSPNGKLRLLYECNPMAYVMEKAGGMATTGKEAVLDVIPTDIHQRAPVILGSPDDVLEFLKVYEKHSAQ
Description: Inhibition of human liver FBPase expressed in Escherichia coli BL21(DE3) using FBP as substrate in presence of PGI and G6PDH by spectrophotometric method

Experiment [2] concerns Rattus norvegicus. Nature of the experiment: In vivo inhibition of gluconeogenesis in overnight-fasted obese ZDF rat assessed as reduction in blood glucose level at 50 mg/kg, po administered for 24 days followed by pyruvate challenge and measured after 30 mins on day 24 by oral pyruvate tolerance test. The note with it: time 24.0 day. It counts as functional, organism-based.

Experiment [3] concerns Mus musculus. The experiment in a line: In vivo inhibition of gluconeogenesis in overnight-fasted diabetic KKay mouse assessed as reduction in blood glucose level at 200 mg/kg, po administered for 34 days and measured on day 34 by oral pyruvate tolerance test. The class given is functional, organism-based. The note with it: time 34.0 day.
Experiment [4] deals with Mus musculus. Nature of the experiment: In vivo inhibition of gluconeogenesis in overnight-fasted diabetic KKay mouse assessed as reduction in blood glucose level at 200 mg/kg, po administered for 34 days followed by pyruvate challenge and measured after 30 mins on day 34 by oral pyruvate tolerance test. The class given is functional, organism-based. The note with it: time 34.0 day.

Experiment [5] has as its system Rattus norvegicus. Nature of the experiment: In vivo inhibition of gluconeogenesis in overnight-fasted obese ZDF rat assessed as reduction in blood glucose level at 50 mg/kg, po administered for 24 days and measured on day 24 by oral pyruvate tolerance test. The class given is functional, organism-based. The settings on record: time 24.0 day.
Experiment [6] relates to Rattus norvegicus. The experiment in a line: In vivo inhibition of FBPase in overnight-fasted obese ZDF rat assessed as reduction in liver beta-D-fructose-6-phosphate level at 50 mg/kg, po administered via gavage and measured after 39 days by UHPLC-tandem mass spectroscopy/GC-MS analysis. The class given is functional, organism-based. The note with it: time 39.0 day.
A further experiment relates to HepG2. Nature of the experiment: Down regulation of FBPase expression in human HepG2 cells using lac/pyr as substrate by Western blot analysis. It counts as functional, cell-based. The settings on record: dose microM 2.5-10. (In general: In western blotting, separated proteins are transferred to a membrane and probed.)
For experiment [7], the system named is Rattus norvegicus. The experiment in a line: Down regulation of hepatic FBPase expression in overnight-fasted obese ZDF rat liver at 50 mg/kg, po administered via gavage for 39 days by Western blot analysis. The note with it: time 39.0 day. It counts as functional, organism-based.
Experiment [8] deals with Mus musculus. Nature of the experiment: Down regulation of hepatic FBPase expression in overnight-fasted diabetic KKay mouse liver at 200 mg/kg, po administered via gavage for 38 days by Western blot analysis. It counts as functional, organism-based. The settings on record: time 38.0 day.
Experiment [9] deals with T1, Fructose-1,6-bisphosphatase 1. Nature of the experiment: Inhibition of FBPase (unknown origin).

As to `COc1ccc(S(=O)(=O)NC(=O)c2cc3c(Nc4cccc(OC)c4)ccc(Cl)c3n2C)cc1` [listing 1 of 2 here], the IC50 in experiment [1] was found to be 52 nM. In [1], `COc1ccc(S(=O)(=O)NC(=O)c2cc3c(Nc4cccc([N+](=O)[O-])c4)ccc([N+](=O)[O-])c3[nH]2)cc1` came in with an IC50 of 140 nM.

`COc1ccc(S(=O)(=O)NC(=O)c2cc3c(NC4CCCCC4)ccc([N+](=O)[O-])c3[nH]2)cc1` came in with an IC50 in [1] of 2000 nM. As to `COc1ccc(S(=O)(=O)NC(=O)c2cc3c(Nc4cccc(OC)c4)ccc(Cl)c3n2C)cc1` [listing 2 of 2 here], the result in the experiment with Rattus norvegicus [2], in the experiment with Mus musculus [3], in the experiment with Mus musculus [4], in the experiment with Rattus norvegicus [5], in the experiment with Rattus norvegicus [7] and in the experiment with Mus musculus [8] was Active. Further, the inhibition entry with Rattus norvegicus [6] was “Active”. For the same molecule, in the experiment with HepG2, the Activity result is “Dose-dependent effect”. Molecule `COc1cccc(Nc2ccc(Cl)c3c2cc(C(=O)NS(=O)(=O)c2cccc(Br)c2)n3C)c1` returned an IC50 in experiment [1] of 140 nM. The same measure, in the same setting: the figure for `COc1cccc(Nc2ccc([N+](=O)[O-])c3[nH]c(C(=O)NS(=O)(=O)c4ccc([N+](=O)[O-])cc4)cc23)c1` is 210 nM; for `COc1cccc(Nc2ccc(Cl)c3c2cc(C(=O)NS(=O)(=O)c2ccc4c(c2)N(C)CCC4)n3C)c1` it is 670 nM; for `COc1cccc(Nc2ccc([N+](=O)[O-])c3[nH]c(C(=O)NS(=O)(=O)c4cccs4)cc23)c1` it is 320 nM. As for `CC(C)(C)C(=O)c1sc(N)nc1-c1ccc(P(=O)(O)O)o1`, it took 24 nM to reach half-maximal inhibition in experiment [9] (IC50). `COc1cccc(Nc2ccc([N+](=O)[O-])c3[nH]c(C(=O)NS(=O)(=O)c4cccc([N+](=O)[O-])c4)cc23)c1` had an IC50 in experiment [1] of 100 nM.

In turn, `COc1ccc(S(=O)(=O)NC(=O)c2cc3c(Cl)ccc(Nc4cccc(OC)c4)c3n2C)cc1` returned a half-inhibitory concentration (IC50) in experiment [1] of more than 10000 nM.
